Laboratory results: ChEMBL document CHEMBL1153463 (Bioorg Med Chem Lett, 2009)

Experiments:
[1] = tested on: Respiratory syncytial virus; experiment: Antiviral activity against RSV assessed as inhibition of viral replication by cell based assay; assay type: functional, organism-based; settings: human respiratory syncytial virus
[2] = Metabolic stability in human liver mocrosomes; settings: liver microsomes
[3] = Permeability across human Caco-2 cells
[4] = tested on: Respiratory syncytial virus; experiment: Antiviral activity against RSV infected in BALB/c mouse assessed as log reduction in viral titer; assay type: functional
[5] = Volume of distribution at steady state in rat at 1 mg/kg, iv; settings: in vivo
[6] = tested on: Respiratory syncytial virus; experiment: Antiviral activity against RSV infected in BALB/c mouse assessed as reduction viral replication by RT-PCR; assay type: functional
[7] = in vivo; settings: rat, po, 5 mg/kg
[8] = in vivo; settings: rat, po, 5 mg/kg; remark: listed apart in the source
[9] = in vivo; settings: rat, iv, 1 mg/kg
[10] = in vivo; settings: rat, iv, 1 mg/kg; remark: listed apart in the source

SMILES | EC50 [1] [nM] | half-life [2] [min] | other results
CO/N=C1/C(=O)N(Cc2nc3ccccc3n2CCCCF)c2cnccc21 | 106 | 26 | Papp [3]: 12.8 ×10⁻⁶ cm/s
O=C1/C(=N/OCCF)c2ccncc2N1Cc1nc2ccccc2n1CCCCF | 61.9 | 38 | Papp [3]: 15.8 ×10⁻⁶ cm/s
COCCCn1c(CN2C(=O)/C(=N/OCc3cccnc3)c3ccccc32)nc2ccccc21 | 141 |  | 
CS(=O)(=O)CCCn1c(CN2C(=O)/C(=N/OCc3ccc(S(C)(=O)=O)cc3)c3cnccc32)nc2ccccc21 | 10600 | 200 | 
CC(C)CCn1c(CN2C(=O)/C(=N/OCc3ccc(C(=O)O)cc3)c3ccccc32)nc2ccccc21 | 16 |  | 
O=C1/C(=N/O)c2ccncc2N1Cc1nc2ccccc2n1CCCCF | 17.9 | 100 | Papp [3]: 2.7 ×10⁻⁶ cm/s
CO/N=C1/C(=O)N(Cc2nc3ccccc3n2CCCCO)c2ncccc21 | 31.2 | 31 | Papp [3]: 14.1 ×10⁻⁶ cm/s
COCCCn1c(CN2C(=O)/C(=N/OCC3CCCO3)c3ccccc32)nc2ccccc21 (centres undefined) | 152 |  | 
CS(=O)(=O)CCCn1c(CN2C(=O)/C(=N/OCc3ccccn3)c3ccncc32)nc2ccccc21 | 29 | 21 | Papp [3]: 1.6 ×10⁻⁶ cm/s
O=C1/C(=N/OCCF)c2ccncc2N1Cc1nc2ccccc2n1CCCCO | 54.2 | 100 | Papp [3]: 5.3 ×10⁻⁶ cm/s; deltaTCID50 [4]: 0.68
CC(=O)OCCCCn1c(CN2C(=O)/C(=N/OCCF)c3cccnc32)nc2ccccc21 | 54.6 |  | 
CS(=O)(=O)c1ccc(CO/N=C2/C(=O)N(Cc3nc4ccccc4n3CCCCO)c3ccccc32)cc1 | 12 | 13 | Papp [3]: 15.2 ×10⁻⁶ cm/s
COCCCn1c(CN2C(=O)/C(=[N+](/[O-])C3CCCCC3)c3ccccc32)nc2ccccc21 | 285 |  | 
COCCCn1c(CN2C(=O)/C(=N/OCCC3CCCCC3)c3ccccc32)nc2ccccc21 | 384 |  | 
C=CCCO/N=C1/C(=O)N(Cc2nc3ccccc3n2CCCOC)c2ccccc21 | 260 |  | 
CS(=O)(=O)c1ccc(CO/N=C2/C(=O)N(Cc3nc4ccccc4n3CCCCO)c3ncccc32)cc1 | 7.3 | 5.3 | Papp [3]: 7.1 ×10⁻⁶ cm/s
C=CCCCO/N=C1/C(=O)N(Cc2nc3ccccc3n2CCCOC)c2ccccc21 | 192 |  | 
COCCCn1c(CN2C(=O)/C(=N/OC(CC(O)O)C(O)O)c3ccccc32)nc2ccccc21 (centres undefined) | 19 |  | 
CC(C)CCn1c(CN2C(=O)/C(=N/OCc3ccccc3)c3ccccc32)nc2ccccc21 | 202 |  | 
COCCCn1c(CN2C(=O)/C(=N/OCc3ccc(C(=O)OC)cc3)c3ccccc32)nc2ccccc21 | 50 |  | 
CS(=O)(=O)CCCn1c(CN2C(=O)/C(=N/OCCF)c3cccnc32)nc2ccccc21 | 29.2 | > 100 | Papp [3]: 18.2 ×10⁻⁶ cm/s; Vd [5]: 1.8 L/kg; deltaTCID50 [4]: 1.05; Ratio [6]: 45; bioavailability [7]: 14%; Cmax [8]: 14 ng/mL; clearance [9]: 130 mL/min/kg; half-life [10]: 12 min
CCC(CC)O/N=C1/C(=O)N(Cc2nc3ccccc3n2CCCOC)c2ccccc21 | 935 |  | 
CO/N=C1/C(=O)N(Cc2nc3ccccc3n2CCCCOC(C)=O)c2ccccc21 | 30 | 1.5 | 
C=CCO/N=C1/C(=O)N(Cc2nc3ccccc3n2CCCS(C)(=O)=O)c2cnccc21 | 12.4 |  | 
CCO/N=C1/C(=O)N(Cc2nc3ccccc3n2CCCOC)c2ccccc21 | 59 |  | 
COC(=O)c1ccc(CO/N=C2/C(=O)N(Cc3nc4ccccc4n3CCN(C)C)c3ccccc32)cc1 | 23 | 0.6 | 
CC(=O)OCCCCn1c(CN2C(=O)/C(=N/O)c3cccnc32)nc2ccccc21 | 49.7 | 1.3 | Papp [3]: 1.2 ×10⁻⁶ cm/s

SMILES | EC50 [1] [nM] | half-life [2] [min] | other results
COCCCn1c(CN2C(=O)/C(=N/OCCCF)c3ccccc32)nc2ccccc21 | 125 |  | 
COCCCn1c(CN2C(=O)/C(=N/OCc3ccc(C(=O)N(C)C)cc3)c3ccccc32)nc2ccccc21 | 30 |  | Papp [3]: 23.7 ×10⁻⁶ cm/s
COCCCn1c(CN2C(=O)/C(=N/OC(C)C)c3ccccc32)nc2ccccc21 | 257 |  | 
CS(=O)(=O)CCCn1c(CN2C(=O)/C(=N/OCCF)c3ccncc32)nc2ccccc21 | 12.5 | > 100 | Papp [3]: 1 ×10⁻⁶ cm/s
COCCCn1c(CN2C(=O)/C(=N/OCCN(C)C)c3ccccc32)nc2ccccc21 | 370 |  | 
C=CCO/N=C1/C(=O)N(Cc2nc3ccccc3n2CCCOC)c2ccccc21 | 428 |  | 
COC(=O)c1ccc(CO/N=C2/C(=O)N(Cc3nc4ccccc4n3CCC(C)C)c3ccccc32)cc1 | 23 | 0.6 | 
COCCCn1c(CN2C(=O)/C(=N/OC3CCOCC3)c3ccccc32)nc2ccccc21 | 206 |  | 
COCCCn1c(CN2C(=O)/C(=N/OCC(O)CC#N)c3ccccc32)nc2ccccc21 (centres undefined) | 65 |  | 
COCCCn1c(CN2C(=O)/C(=N/OCC(N)=O)c3ccccc32)nc2ccccc21 | 154 | 21 | Papp [3]: 1.5 ×10⁻⁶ cm/s
C#CCCCO/N=C1/C(=O)N(Cc2nc3ccccc3n2CCCOC)c2ccccc21 | 64 |  | 
COCCCn1c(CN2C(=O)/C(=N/OCCN3CCCCC3)c3ccccc32)nc2ccccc21 | 682 |  | 
COCCCn1c(CN2C(=O)/C(=N/OCCCC#N)c3ccccc32)nc2ccccc21 | 79 |  | 
O=C1/C(=N/OCC(F)(F)F)c2cccnc2N1Cc1nc2ccccc2n1CCCCO | 79.8 | 65 | Papp [3]: 15.4 ×10⁻⁶ cm/s
CC(=O)OCCCCn1c(CN2C(=O)/C(=N/OCc3ccc(S(C)(=O)=O)cc3)c3ccccc32)nc2ccccc21 | 5 |  | 
CCCCO/N=C1/C(=O)N(Cc2nc3ccccc3n2CCCOC)c2ccccc21 | 261 |  | 
COC(=O)c1ccc(CO/N=C2/C(=O)N(Cc3nc4ccccc4n3CCNS(C)(=O)=O)c3ccccc32)cc1 | 51 |  | 
COCCCn1c(CN2C(=O)/C(=N/OCc3ccccn3)c3ccccc32)nc2ccccc21 | 238 |  | 
CO/N=C1/C(=O)N(Cc2nc3ccccc3n2CCCCO)c2ccccc21 | 10 |  | 
COCCCn1c(CN2C(=O)/C(=[N+](/[O-])C(C)C)c3ccccc32)nc2ccccc21 | 230 |  | 
CO/N=C1/C(=O)N(Cc2nc3ccccc3n2CCCC#N)c2ncccc21 | 92.8 | 28 | Papp [3]: 16 ×10⁻⁶ cm/s
COCCCn1c(CN2C(=O)/C(=N/OCC(F)(F)F)c3ccccc32)nc2ccccc21 | 2740 | 3.2 | Papp [3]: 65.2 ×10⁻⁶ cm/s
COCCCn1c(CN2C(=O)/C(=N/OCS(=O)(=O)O)c3ccccc32)nc2ccccc21 | 46 |  | 
COCCCn1c(CN2C(=O)/C(=N/OCC3CC3)c3ccccc32)nc2ccccc21 | 96 |  | 
N#CCCCn1c(CN2C(=O)/C(=N/OCC(F)(F)F)c3cccnc32)nc2ccccc21 | 112 | 48 | Papp [3]: 18 ×10⁻⁶ cm/s
CC(C)CCn1c(CN2C(=O)/C(=N/Oc3ccccc3)c3ccccc32)nc2ccccc21 | 375 |  | 
N#CCCCn1c(CN2C(=O)/C(=N/OCC(N)=O)c3ccccc32)nc2ccccc21 | 45 |  | Papp [3]: 3 ×10⁻⁶ cm/s

SMILES | EC50 [1] [nM] | half-life [2] [min] | other results
CN(C)CCn1c(CN2C(=O)/C(=N/OCc3ccc(C(=O)O)cc3)c3ccccc32)nc2ccccc21 | 16.5 |  | 
COCCCn1c(CN2C(=O)/C(=N/OCC3CCC3)c3ccccc32)nc2ccccc21 | 246 |  | 
COCCCn1c(CN2C(=O)/C(=N/OCCCCOC(C)=O)c3ccccc32)nc2ccccc21 | 62 |  | 
COCCCn1c(CN2C(=O)/C(=N/OCCCN3CCCCC3)c3ccccc32)nc2ccccc21 | 290 |  | 
CC(C)CCn1c(CN2C(=O)/C(=N/Oc3ccc(Br)cc3)c3ccccc32)nc2ccccc21 | 705 |  | 
CCN(CC)C(=O)CO/N=C1/C(=O)N(Cc2nc3ccccc3n2CCCOC)c2ccccc21 | 26 |  | 
CO/N=C1/C(=O)N(Cc2nc3ccccc3n2CCC(C)C)c2ccccc21 | 87 |  | 
CCC(CC)/[N+]([O-])=C1\C(=O)N(Cc2nc3ccccc3n2CCCOC)c2ccccc21 | 898 |  | 
COCCCn1c(CN2C(=O)/C(=N/OCc3ccncc3)c3ccccc32)nc2ccccc21 | 242 | 0.6 | Papp [3]: 21.4 ×10⁻⁶ cm/s
CS(=O)(=O)c1ccc(CO/N=C2/C(=O)N(Cc3nc4ccccc4n3CCCC#N)c3ccncc32)cc1 | 10200 | 29 | 
COCCCn1c(CN2C(=O)/C(=N/OCC(=O)O)c3ccccc32)nc2ccccc21 | 295 |  | 
CCCCCO/N=C1/C(=O)N(Cc2nc3ccccc3n2CCCOC)c2ccccc21 | 188 |  | 
N#CCCCn1c(CN2C(=O)/C(=N/OCC(F)(F)F)c3ccccc32)nc2ccccc21 | 66 | 18 | 
CC(C)CCn1c(CN2C(=O)/C(=N/OCc3ccc(C(=O)N(C)C)cc3)c3ccccc32)nc2ccccc21 | 9 |  | 
CCCO/N=C1/C(=O)N(Cc2nc3ccccc3n2CCCOC)c2ccccc21 | 147 |  | 
COCCCn1c(CN2C(=O)/C(=N/OC)c3ccccc32)nc2ccccc21 | 30 | 16 | 
CC(C)CCn1c(CN2C(=O)/C(=N/O)c3ccccc32)nc2ccccc21 | 10 |  | 
COCCCn1c(CN2C(=O)/C(=N/OCCCN(C)C)c3ccccc32)nc2ccccc21 | 240 |  | 
COCCCn1c(CN2C(=O)/C(=N/OCCF)c3ccccc32)nc2ccccc21 | 71 |  | 
CO/N=C1/C(=O)N(Cc2nc3ccccc3n2CCCCO)c2cnccc21 | 30.9 | 84 | Papp [3]: 9.8 ×10⁻⁶ cm/s
O=C1/C(=N/OCCF)c2cccnc2N1Cc1nc2ccccc2n1CCCCO | 43.1 | 44 | Papp [3]: 11.5 ×10⁻⁶ cm/s; deltaTCID50 [4]: 0.62
N#CCCCn1c(CN2C(=O)/C(=N/OCCF)c3cccnc32)nc2ccccc21 | 57.3 | 55 | Papp [3]: 15.5 ×10⁻⁶ cm/s
COCCCn1c(CN2C(=O)/C(=N/OC3CCCCC3)c3ccccc32)nc2ccccc21 | 652 |  | 
N#CCCCn1c(CN2C(=O)/C(=N/O)c3cccnc32)nc2ccccc21 | 22.7 | 100 | Papp [3]: 4.2 ×10⁻⁶ cm/s
CC(C)(C)O/N=C1/C(=O)N(Cc2nc3ccccc3n2CCCCO)c2ccccc21 | 1130 |  | 
